Results published in patent US5935829A, “Mutation assays involving blood cells that metabolize toxic substances” (priority 1992, dated 1999).
Like-named read-outs stand apart in the source and are kept apart here.

Columns and labels:
[1] = test system: AHH-1 cells
[2] = in vitro; conditions: human, ahh-1 cells, RELATIVE SURVIVAL; for viability at 48 h, 25 µM: 25 μM × 48 hours; for viability at 48 h, 5000 µM: 5 mM × 48 hours; for viability at 48 h, 14000 µM: 14 mM × 48 hours; for viability at 48 h, 28000 µM: 28 mM × 48 hours; for viability at 48 h, 300 µM: 300 μM × 48 hours
[3] = test system: 6-TG resistant AHH-1 cells
[4] = test system: AHH-1 cells; experiment: Cell clumping at concentrations of 6-TG in microtiter wells; format: cell-based, human
Experimental: When applied at relatively high concentrations to a colony of cells, 6-thioguanine (6-TG) causes the cells to clump together, rendering it difficult or impossible for live mutant cells to survive and create colonies. […] […]. Subsequent routine work was done using 0.5 μg/ml of 6-TG.

[5] = test system: wild type AHH-1 cells; experiment: Plating efficiency of wild type cells with 6-TG; format: cell-based, human
[6] = test system: 6-TG resistant AHH-1 clones; experiment: Plating efficiency of clones resistant to 6-TG; format: cell-based, human; conditions: for Plating Efficiency with 6-TG & 2000 c/w: with 2000 wild type cells per well
[7] = test system: AHH activity of AHH-1 cells; format: cell-based, human
Experimental: The quantity of 3-hydroxy BaP was measured by fluorescent intensity activated by a light wavelength of 396 nm and measured at 522 nm using a spectrofluorimeter (Farrand Model Mk-1, Valhalla, N.Y.).
After growth of the cells in culture medium with gentamycin and kanamycin, the cells were plated in microtiter plates at a density of about 0.2 cells per well. Colonies were isolated and characterized for BaP-induced growth inhibition. A total of 47 colonies were isolated and contacted with 40 uM BaP. In its normal state, BaP is not highly cytotoxic or mutagenic; however, if metabolized by oxidative activity into one or more epoxides or phenols, the metabolites tend to be toxic and mutagenic.
6-TG resistant clones were characterized for AHH activity by measuring the rate of production of 3-OH benzopyrene, a fluorescent metabolite of BaP which is created by AHH activity.

[8] = test system: AHH-1 cells; experiment: Phenotypic expression of ICR-191 induced mutation; format: cell-based, human
Experimental: AHH-1 cell cultures were contacted with ICR-191 (Polysciences Inc, Warrington Pa.) which is a known mutagen comprising an acridine mustard derivative, at varying concentrations ranging up to 1.0 μM, for 24 hours. The cultures were resuspended in growth medium and allowed to grow. At different times after treatment, the cells were contacted with 6-TG to determine the mutant fraction.

[9] = in vitro; format: cell-based, human; conditions: human, 6-tg resistant ahh-1 cells, 6-TG^r AHH-1 cells, read-out: Relative Survival
From the text: (§1) Preferential survival during toxic treatment tested by exposing two sets of cells to varying concentrations of ICR-191.

[10] = test system: 6-TG^r AHH-1 cells; experiment: in vitro; format: cell-based, human; conditions: varying concentrations of ICR-191
From the text: as §1

[11] = in vitro; format: cell-based; conditions: human, ahh-1 cells, read-out: Relative Survival
From the text: as §1

[12] = 25 μM × 48 hours, induction none
[13] = 50 μM × 48 hours, induction BNF
[14] = 50 μM × 48 hours, induction none
[15] = 100 μM × 48 hours, induction BNF
[16] = 100 μM × 48 hours, induction none
[17] = 75 μM × 48 hours, induction none
[18] = 1 μM × 48 hours, induction CEPE
[19] = 3 μM × 48 hours, induction CEPE
[20] = 10 μM × 48 hours, induction CEPE
[21] = 25 μM × 4.8 hours, induction CEPE
[22] = 50 μM × 48 hours, induction CEPE & BNF
[23] = 10 μM × 48 hours, induction BNF
[24] = 600 μM × 48 hours, induction none

## Cc1cccc2c1ccc1ccccc12 [1MP, 1-methylphenanthrene]
[1]; 25 μM × 48 hours, induction BNF
  MUTANT FRACTION × 10^6, MEAN ± STD.DEV.: 3.6 ± 1.2 × 10^6
[1]; [12]
  MUTANT FRACTION × 10^6, MEAN ± STD.DEV.: 4.4 ± 1.2 × 10^6
[1]; [13]
  MUTANT FRACTION × 10^6, MEAN ± STD.DEV.: 8.9 ± 1.5 × 10^6
[1]; [14]
  MUTANT FRACTION × 10^6, MEAN ± STD.DEV.: 4.1 ± 1.2 × 10^6
[1]; [15]
  MUTANT FRACTION × 10^6, MEAN ± STD.DEV.: 7.8 ± 1.4 × 10^6
[1]; [16]
  MUTANT FRACTION × 10^6, MEAN ± STD.DEV.: 7.8 ± 1.1 × 10^6
[2]; induction BNF
  viability at 48 h, 25 µM: 47%
[2]; induction none
  viability at 48 h, 25 µM: 54%
[2]; [13]
  viability at 48 h, 50 µM: 35%
[2]; [14]
  viability at 48 h, 50 µM: 38%
[2]; [15]
  viability at 48 h, 100 µM: 29%
[2]; [16]
  viability at 48 h, 100 µM: 31%

## CC(=O)Nc1ccc2c(c1)Cc1ccccc1-2 [2AAF, 2-acetoaminofluorene]
[1]; [12]
  MUTANT FRACTION × 10^6, MEAN ± STD.DEV.: 4.8 ± 1.2 × 10^6
[1]; [14]
  MUTANT FRACTION × 10^6, MEAN ± STD.DEV.: 3.8 ± 1.1 × 10^6
[1]; [17]
  MUTANT FRACTION × 10^6, MEAN ± STD.DEV.: 6.9 ± 1.7 × 10^6
[1]; [16]
  MUTANT FRACTION × 10^6, MEAN ± STD.DEV.: 7.7 ± 0.7 × 10^6
[2]; induction none
  viability at 48 h, 25 µM: 73%
[2]; [14]
  viability at 48 h, 50 µM: 50%
[2]; [17]
  viability at 48 h, 75 µM: 37%
[2]; [16]
  viability at 48 h, 100 µM: 33%

## Nc1nc2nc[nH]c2c(=S)[nH]1 [6-TG, 6-thioguanine]
[3]; 6-TG resistant mutant AHH-1 population, up to 5 μg/ml, about two cells per well
  sensitivity to toxic effects of 6-TG: not sensitive
[3]; seven 6-TG resistant clones
  growth rates with and without 6-TG: comparable growth rates
[4]; 0.5 μg/ml 6-TG
  cells per microtiter well that could be assayed: ≥ 20,000 cells per microtiter well
[4]; 5 μg/ml 6-TG
  cells per microtiter well that could be assayed without clumping: about 2,000 cells per microtiter well
[5]
  Plating Efficiency in 5 μg/ml 6-TG at 2 cells/well: < 10^-3
[5]; 2000 c/w
  Plating Efficiency with 6-TG & 2000 c/w: 10^-5
[6]; clone BP-3
  Plating Efficiency in 5 μg/ml 6-TG at 2 cells/well: 0.24
  Plating Efficiency with 6-TG & 2000 c/w: 0.23
[6]; clone BP-4
  Plating Efficiency in 5 μg/ml 6-TG at 2 cells/well: 0.34
  Plating Efficiency with 6-TG & 2000 c/w: 0.34
[6]; clone BP-5
  Plating Efficiency in 5 μg/ml 6-TG at 2 cells/well: 0.21
  Plating Efficiency with 6-TG & 2000 c/w: 0.20
[6]; clone BP-6
  Plating Efficiency in 5 μg/ml 6-TG at 2 cells/well: 0.26
  Plating Efficiency with 6-TG & 2000 c/w: 0.34
[6]; clone BP-7
  Plating Efficiency in 5 μg/ml 6-TG at 2 cells/well: 0.06
  Plating Efficiency with 6-TG & 2000 c/w: 0.07

## C1=Cc2cc3cccc4ccc5ccc1c2c5c43 [CEPE, cyclopenteno(c,d)pyrene]
[7]
  induction of AHH activity: inducers
[1]; [18]
  MUTANT FRACTION × 10^6, MEAN ± STD.DEV.: 71 ± 6 × 10^6
[1]; [19]
  MUTANT FRACTION × 10^6, MEAN ± STD.DEV.: 78 ± 9 × 10^6
[1]; [20]
  MUTANT FRACTION × 10^6, MEAN ± STD.DEV.: 22 ± 2 × 10^6
[1]; [21]
  MUTANT FRACTION × 10^6, MEAN ± STD.DEV.: 34 ± 4 × 10^6
[1]; 25 μM × 48 hours, induction CEPE & BNF
  MUTANT FRACTION × 10^6, MEAN ± STD.DEV.: 74 ± 7 × 10^6
[1]; [22]
  MUTANT FRACTION × 10^6, MEAN ± STD.DEV.: 64 ± 7 × 10^6
[2]; [18]
  viability at 48 h, 1 µM: 61%
[2]; [19]
  viability at 48 h, 3 µM: 63%
[2]; [20]
  viability at 48 h, 10 µM: 59%
[2]; [21]
  viability at 4.8 h, 25 µM: 54%
[2]; induction CEPE & BNF
  viability at 48 h, 25 µM: 34%
[2]; [22]
  viability at 48 h, 50 µM: 27%

## CN(C)N=O [DMN, dimethylnitrosamine]
[1]; 5 mM × 48 hours, induction BNF
  MUTANT FRACTION × 10^6, MEAN ± STD.DEV.: 4.0 ± 0.7 × 10^6
[1]; 5 mM × 48 hours, induction none
  MUTANT FRACTION × 10^6, MEAN ± STD.DEV.: 3.5 ± 0.7 × 10^6
[1]; 14 mM × 48 hours, induction BNF
  MUTANT FRACTION × 10^6, MEAN ± STD.DEV.: 8.0 ± 2.0 × 10^6
[1]; 14 mM × 48 hours, induction none
  MUTANT FRACTION × 10^6, MEAN ± STD.DEV.: 3.5 ± 0.7 × 10^6
[1]; 28 mM × 48 hours, induction BNF
  MUTANT FRACTION × 10^6, MEAN ± STD.DEV.: 8.6 ± 2.1 × 10^6
[1]; 28 mM × 48 hours, induction none
  MUTANT FRACTION × 10^6, MEAN ± STD.DEV.: 4.1 ± 1.3 × 10^6
[2]; induction BNF
  viability at 48 h, 5000 µM: 112%
  viability at 48 h, 14000 µM: 100%
  viability at 48 h, 28000 µM: 87%
[2]; induction none
  viability at 48 h, 5000 µM: 98%
  viability at 48 h, 14000 µM: 92%
  viability at 48 h, 28000 µM: 81%

## CCOS(C)(=O)=O [EMS, ethyl methanesulfonate]
[1]; 59 μM × 24 hours
  MUTANT FRACTION × 10^6, MEAN ± STD.DEV.: 6.3 ± 1.3 × 10^6
[1]; 100 μM × 24 hours
  MUTANT FRACTION × 10^6, MEAN ± STD.DEV.: 20 ± 5 × 10^6
[2]; 59 μM × 24 hours
  viability at 24 h, 59 µM: 48%
[2]; 100 μM × 24 hours
  viability at 24 h, 100 µM: 36%

## c1ccc2c(c1)-c1cccc3cccc-2c13 [Fla, fluoranthene]
[1]; human, ahh-1 cells, 48 h, 40 µM
  RELATIVE SURVIVAL: 0.70
[2]
  viability at 48 h, 10 µM: 105%
  viability at 48 h, 20 µM: 93%
  viability at 48 h, 40 µM: 75%
  viability at 48 h, 50 µM: 67%
  viability at 48 h, 100 µM: 45%

## COc1ccc2nc3cc(Cl)ccc3c(NCCCNCCCl)c2c1 [ICR-191]
[8]; ICR-191 up to 1.0 μM, 24 hours
  time to full expression of induced mutation: ≤ 6 days
[8]; up to 14 days
  mutant fraction stability after full expression: remained relatively stable
[9]; 0.25 μg/ml at 24 hrs
  viability at 24 h: 48%
[9]; 0.5 μg/ml at 24 hrs
  viability at 24 h: 20%
[9]; 1.0 μg/ml at 24 hrs
  viability at 24 h: 14%
[10]
  difference in survival rate between non-resistant and 6-TG resistant AHH-1 cells: did not reach the level of statistical significance
[11]; 0.25 μg/ml at 24 hrs
  viability at 24 h: 65%
[11]; 0.5 μg/ml at 24 hrs
  viability at 24 h: 48%
[11]; 1.0 μg/ml at 24 hrs
  viability at 24 h: 13%
[1]; 0.63 μM × 24 hours
  MUTANT FRACTION × 10^6, MEAN ± STD.DEV.: 62 ± 11 × 10^6
[1]; 1.25 μM × 24 hours
  MUTANT FRACTION × 10^6, MEAN ± STD.DEV.: 116 ± 17 × 10^6
[1]; 2.5 μM × 24 hours
  MUTANT FRACTION × 10^6, MEAN ± STD.DEV.: 147 ± 28 × 10^6
[2]; 0.63 μM × 24 hours
  viability at 24 h, 0.63 µM: 65%
[2]; 1.25 μM × 24 hours
  viability at 24 h, 1.25 µM: 48%
[2]; 2.5 μM × 24 hours
  viability at 24 h, 2.5 µM: 13%

## C/C=C(/C)C(=O)O[C@H]1CCN2CC=C(COC(=O)[C@@](O)([C@H](C)OC)C(C)(C)O)[C@H]12 [LSCP, lasiocarpine]
[1]; [23]
  MUTANT FRACTION × 10^6, MEAN ± STD.DEV.: 3.9 ± 1 × 10^6
[1]; [15]
  MUTANT FRACTION × 10^6, MEAN ± STD.DEV.: 4.3 ± 1 × 10^6
[1]; [16]
  MUTANT FRACTION × 10^6, MEAN ± STD.DEV.: 5.4 ± 0.6 × 10^6
[1]; 300 μM × 48 hours, induction BNF
  MUTANT FRACTION × 10^6, MEAN ± STD.DEV.: 12.7 ± 2.1 × 10^6
[1]; 300 μM × 48 hours, induction none
  MUTANT FRACTION × 10^6, MEAN ± STD.DEV.: 6.2 ± 1.3 × 10^6
[1]; [24]
  MUTANT FRACTION × 10^6, MEAN ± STD.DEV.: 6.0 ± 1.4 × 10^6
[2]; [23]
  viability at 48 h, 10 µM: 103%
[2]; [15]
  viability at 48 h, 100 µM: 91%
[2]; [16]
  viability at 48 h, 100 µM: 130%
[2]; induction BNF
  viability at 48 h, 300 µM: 81%
[2]; induction none
  viability at 48 h, 300 µM: 89%
[2]; [24]
  viability at 48 h, 600 µM: 82%
